Test results published in patent US8575116B1, “Polyacetylenic compounds for protecting against pancreatic islet atrophy” (Academia Sinica, priority 2010, dated 2013).
Entries after “also recorded” stand apart in the source; their conditions may differ.

Tests used:
[1] = system: rat pancreatic islet cells; test: Insulin release from rat pancreatic islets (ELISA); format: cell-based
Protocol: (§1) FIGS. 3A-C show cytopiloyne-mediated insulin release depends on pancreatic islet cells. (A) Rat pancreatic islet cells were incubated with glucose-free KRB buffer containing vehicle or cytopiloyne at 1.5, 3, 7, 14, 28 and 42 μM (FIG. 3A-i). Similarly, rat pancreatic islet cells were incubated with KRB buffer containing vehicle, glimepiride (GLM, 10 μM) or cytopiloyne at 1.5, 3, 7, 14, 28 and 42 μM in the presence of 3.3 mM glucose (LG, FIG. 3A-ii) or 16.7 mM glucose (HG, FIG. 3A-iii). The insulin levels were determined using an insulin ELISA kit. The data presented as mean±SEM of 3 independent experiments. (B) Fed C57BL mice, which had already received an injection of STZ, were administered with an oral dose of vehicle, cytopiloyne (CP, 0.1, 0.5 and 2.5 mgkg^−1), and an intraperitoneal injection of insulin (Ins, 2.5 IUkg^−1). Blood sugar levels in the STZ-treated mice were determined using a glucometer. (C) C57BL mice, which had already received STZ, were orally administered with a single dose of vehicle, cytopiloyne (CP, 0.5 and 2.5 mgkg^−1), glimepiride (GLM, 2.5 mgkg^−1), or metformin (60 mgkg^−1), followed by an intraperitoneal injection with insulin (Ins). Blood sugar levels in the STZ-treated mice were determined using a glucometer. All the results from 3 independent experiments are expressed as mean±SEM, and P<0.05 was considered to be statistically significant (*). The number of mice (n) is indicated in parentheses.
Glucose levels in mouse blood samples were measured using an Elite® glucometer (Bayer, Pittsburgh, Pa., USA). Insulin levels in blood samples or islet cell supernatants were determined by ELISA assays (Mercodia, Uppsala, Sweden). The levels of glycosylated HbA1c in mouse blood samples were measured using DCA 2000 analyzer (Bayer, Pittsburgh, Pa., USA).
Pancreatic islets (10 isletsml^−1) from fasted male Wistar rats were incubated with KRB buffer containing vehicle (1 μl DMSO per ml KRB buffer), glimepiride or cytopiloyne in the absence or presence of glucose for 30 min. The KRB buffer was then collected for ELISA assays.

db/db mice = test: Long-term treatment of diabetic db/db mice: blood glucose and blood insulin; format: in vivo, mouse
Protocol: FIGS. 1A-F show the anti-diabetic effects of cytopiloyne in db/db mice during long-term treatment. (A) Chemical structure of cytopiloyne (2-β-D-glucopyranosyloxy-1-hydroxytrideca-5,7,9,11-tetrayne). (B) Four groups of 6-to-8-week-old diabetic db/db mice were tube-fed with vehicle, cytopiloyne (CP, 0.5 and 2.5 mgkg^−1 day^−1) or glimepiride (GLM, 2.5 mgkg^−1 day^−1) from 0 to 42 days post-treatment. Blood glucose (BG) levels in these mice were measured. (C) Blood insulin levels from the mice of FIG. 1B. (D) IPGTT was performed in the db/db mice of FIG. 1B on day 0, 28 and 42, and blood glucose levels were monitored for 3.5 h. […] Results from 3 independent experiments are expressed as mean±SEM, and P<0.05 was considered to be statistically significant (*). […]
After 0.5 h, the levels of postprandial blood sugar and insulin from the mice were monitored for additional 4 h. For continued administration, diabetic db/db males were grouped and tube-fed with vehicle, cytopiloyne (0.5 or 2.5 mgkg^−1 day^−1) or glimepiride (2.5 mg kg^−1 day^−1) for the indicated time, while levels of blood sugar, insulin, and glycosylated HbA1c, and glucose tolerance in these mice were determined. […] Unless indicated otherwise, the mice were fasted for 16 h, then Postprandial blood glucose and insulin in these mice were measured. […]

STZ-treated C57BL mice = test: Blood glucose in STZ-treated (β-cell-depleted) C57BL mice; format: in vivo, mouse; settings: cytopiloyne oral 0.1, 0.5 and 2.5 mgkg^−1; insulin i.p. 2.5 IUkg^−1
Protocol: as §1, with “(C) C57BL mice, which had already received STZ, were orally administered with a single dose of vehicle, cytopiloyne (CP, 0.5 and 2.5 mgkg^−1), glimepiride (GLM, 2.5 mgkg^−1), or metformin (60 mgkg^−1), followed by an intraperitoneal injection with insulin (Ins).” left out, “The number of mice (n) is indicated in parentheses.” left out
To deplete pancreatic β-cells in mice, 6-week-old C57BL females (NLAC, Taipei, Taiwan) were intraperitoneally injected with STZ at 200 mgkg^−1. […] Blood glucose levels were monitored for 4 h. […] Blood glucose levels in the mice were monitored from 0 to 4 h after insulin injection.

[2] = system: rat pancreatic islet cells; test: Intracellular staining for insulin and FACS in rat pancreatic islet cells; format: cell-based; settings: 28 μM, brefeldin A, 24 h
Protocol: FIGS. 4A-C show an increase in insulin mRNA and protein content by cytopiloyne in pancreatic islet cells. (A) HIT-T15 β-cells transfected with phINS-Luc and pRL-TK plasmids were incubated with vehicle (NS), glimepiride (GLM, 10 μM), high glucose (HG, 16.7 mM) or cytopiloyne at 7, 14 or 28 μM. Ten μg of cell lysates from these cells underwent to dual luciferase assays. […] (C) Rat pancreatic islet cells were treated with vehicle, glucose (3.3 mM (LG) or 16.7 mM (HG)) or cytopiloyne (CP, 7, 14 and 28 μM) in the presence of brefeldin A for 24 h. After anti-insulin antibody staining, these cells underwent FACS analysis. The percentage of insulin-positive β-cells is shown. All the results from 3 independent experiments are expressed as mean±SEM, and P<0.05 was considered to be statistically significant (*).
The islets were disrupted into individual cells and underwent intracellular staining with anti-insulin antibody and FACS analysis.

SMILES: CC#CC#CC#CC#CCCC(CO)O[C@@H]1O[C@H](CO)[C@@H](O)[C@H](O)[C@H]1O (stereo partly drawn) [cytopiloyne, 2-β-D-glucopyranosyloxy-1-hydroxytrideca-5,7,9,11-tetrayne]
- insulin secretion from rat islets ([1]; 16.7 mM glucose KRB, also glucose-free and low glucose media): enhanced insulin secretion in high glucose medium
- insulin secretion in the absence of glucose ([1]; high dose, glucose-free KRB buffer): can still stimulate insulin secretion to some extent even in the absence of glucose
- insulin release in pancreatic islets, glucose dependence ([1]; low dose (e.g., 3 μM), 0, 3.3 and 16.7 mM glucose): simulates insulin release in pancreatic islets in a glucose-dependent manner
- blood insulin levels, long-term treatment (db/db mice; 0.5 and 2.5 mgkg^−1 day^−1, db/db mice (FIG. 1C)): increased blood insulin levels to a greater extent than glimepiride
- blood sugar-lowering / anti-diabetic effect compared with glimepiride 2.5 mgkg^−1 (db/db mice; 2.5 mgkg^−1 day^−1, long-term, fed db/db mice (FIG. 1B)): slightly therapeutically better than glimepiride at 2.5 mgkg^−1; also recorded: modestly better anti-diabetic effects at the same dose
- reduction of hyperglycemia / blood glucose in β-cell-depleted mice (STZ-treated C57BL mice): lost its ability in regulating both responses
- intracellular insulin levels compared to the vehicle treatment [2]: fivefold
